Source: PMC5882690, “Mechanical characteristics of beta sheet-forming peptide hydrogels are dependent on peptide sequence, concentration and buffer composition” (Royal Society Open Science, 2018)
Where a SMILES comes first, the peptide text is derived from it.

Columns and labels:
[1] = Fibre width of dried SAP hydrogels by scanning electron microscopy; format: physicochemical; settings: SEM of critical-point-dried hydrogel, 15 mg ml^-1 in Tris–NaCl, ionic strength 140 mM, pH 7.2–8.0, assembled overnight; 25 fibre widths per picture, ImageJ; mean ± SD
Protocol: Nanofibrillar structure of SAP hydrogels was formed for scanning electron microscopy (SEM) (Zeiss SUPRA® 40VP) at a concentration of 15 mg ml^−1 in Tris–NaCl buffer to a final ionic strength of 140 mM and a final pH of 7.2–8.0, as described in table 1. SAP hydrogels were assembled overnight. Self-assembly was apparent due to the gelation and β-sheet formation of the fibrillar structure as described by Aggeli et al. and Carrick et al. (by circular dichroism, Fourier transform infrared spectroscopy and transmission electron microscopy) and was further confirmed in the present study for P11-4 and P11-8 (see electronic supplementary material, figures S4, S6 and S7). SAP hydrogels were fixed with a glutaraldehyde solution (4% in borate buffer, using 0.1 ml per 0.1 ml peptide hydrogel) for 24 h. Gels were then dehydrated by increasing ethanol concentration in steps (25%, 50%, 60%, 70%, 80%, 90%, 100% ethanol) at 15 min intervals. The last step (100% ethanol) was repeated three times. Afterwards, critical point drying (Balzers Union, CPD020) was applied to stabilize the natural three-dimensional network structure. Finally, the network structures were glued on an SEM stub with carbon tape and sputter coated with 2.5 nm gold–palladium (Thermo VG Scientific, Polaron, SC7620). […] Fibre diameters were analysed with IMAGEJ software. Twenty-five fibre widths were measured for each picture.

[2] = Oscillatory time sweep (hydrogel stiffness at t = 100 min, gelation speed); format: physicochemical; settings: for Stiffness (storage modulus G′ at t = 100 min) / Speed (gelation speed, dG′/dt 5–10 min): time sweep, mean ± SD
Protocol: Dynamic oscillatory amplitude sweeps up to 150% strain were performed at 37°C using an Anton Paar MCR301 rheometer equipped with a 10 mm diameter stainless steel parallel plate geometry at a 0.9 mm measuring gap. The amplitude sweep tests were performed to measure storage moduli (G′) within the linear viscoelastic region. Calculations of the gel breaking points (yield points) were performed with MATLAB depending on the different peptide concentrations. Therefore, the yield strain was defined as the point where G′ is less than 95% of its original value. Oscillatory time sweep experiments were performed to study the gelation speed and hydrogel stiffness. Time sweeps up to 150 min measuring time using a frequency of 1 rad s^−1 and amplitude gamma of 0.05% were used. SAP hydrogel stiffness was determined after the equilibrium of the storage modulus (G′) was reached (t = 100 min). To determine the gelation speed, the slope of increasing storage modulus over time was calculated in the interval from t = 5 to 10 min after placing peptide solutions onto the rheometer.
To study the influence of divalent ions and different media on SAP hydrogel stiffness, gelation speed and gel breaking points (yield points), SAPs were prepared at a concentration of 15 mg ml^−1 in the different media, Tris–NaCl, Tris–MgSO4, DMEM or artificial saliva, according to table 1. All experiments were done at least in duplicate. Statistical evaluation was performed with GRAPHPAD PRISM version 6.0 based on a one-way ANOVA test followed by Tukey's multiple comparison test.

[3] = literature, cited from earlier work
From the text: The topographical structure of SAP hydrogels is important for the three-dimensional arrangement of cells within scaffolds. Zhang et al. state that the fibres of SAP hydrogels resemble the nanometre scale of natural polymer networks and thus allow three-dimensional cell growth. […] (figure 1). […] Moreover, they observed the formation fibre entanglements with diameters of 30 nm. The phenomenon of fibril clustering was also reported by Zhang et al. for the peptides KFE8 and KLD12, characterized by a typical single fibre width of 7 nm and thicker diameters for the bundles of fibres.

[4] = 15 mg ml^-1, artificial saliva, n = 3
[5] = 15 mg ml^-1, serum-free DMEM, n = 3
[6] = artificial saliva versus DMEM, 15 mg ml^-1

CC(=O)N[C@@H](CCC(N)=O)C(=O)N[C@@H](CCC(N)=O)C(=O)N[C@@H](CCCNC(=N)N)C(=O)N[C@@H](Cc1ccccc1)C(=O)N[C@@H](CCC(=O)O)C(=O)N[C@@H](Cc1c[nH]c2ccccc12)C(=O)N[C@@H](CCC(=O)O)C(=O)N[C@@H](Cc1ccccc1)C(=O)N[C@@H](CCC(=O)O)C(=O)N[C@@H](CCC(N)=O)C(=O)N[C@@H](CCC(N)=O)C(N)=O [P11-4, CH3CO-QQRFEWEFEQQ-NH2] (Ac-QQRFEWEFEQQ-NH2)
mean fibre width [1]: 32 ± 6.6 nm
Stiffness (storage modulus G′ at t = 100 min) ([2]; 15 mg ml^-1, Tris–MgSO4, 1 rad s^-1, 37°C, n = 3): 9.5±2.7 kPa
Speed (gelation speed, dG′/dt 5–10 min) ([2]; 15 mg ml^-1, Tris–MgSO4): 0.8±0.1 G`/min
Stiffness (storage modulus G′ at t = 100 min) ([2]; 15 mg ml^-1, Tris–NaCl, 1 rad s^-1, 37°C, n = 3): 5.0± 2.1 kPa
Speed (gelation speed, dG′/dt 5–10 min) ([2]; 15 mg ml^-1, Tris–NaCl): 1.6± 0.6 G`/min
Speed (gelation speed, dG′/dt 5–10 min) [2, 4]: 2.3 ± 0.9 G`/min
Stiffness (storage modulus G′ at t = 100 min) [2, 4]: 4.9 ± 1.6 kPa
Speed (gelation speed, dG′/dt 5–10 min) [2, 5]: 1.3 ± 0.4 G`/min
Stiffness (storage modulus G′ at t = 100 min) [2, 5]: 0.4± 0.01 kPa
factor of increase of gelation (speed) in artificial saliva [2, 6]: 1.8
factor of increase of hydrogel stiffness if prepared with artificial saliva [2, 6]: 12
fibril width ([3]; P11-4 and P11-8 prepared in NaCl): 14 nm
diameter of fibre entanglements ([3]; prepared in NaCl): 30 nm
